Measured values published in patent US20140094424A1, “MICROBICIDAL COMPOSITIONS AND METHODS OF PRODUCTION USE THEREOF” (priority 2011, published 2014).

What was measured:
Assay in all cases: MBC (minimum bactericidal concentration) test in Wash NEXT reagent
Assay type in all cases: cell-based
[1] = system: Pseudomonas aeruginosa (L)
Pseudomonas putida (K) = system: Pseudomonas putida (K)
[2] = system: Pseudomonas aeruginosa (AY)

Measured: MBC test growth score

gentamicin
8: [1]; 10% preservative, 72 hour
2: [1]; 30% preservative, 72 hour
−: [1]; 50% preservative, 72 hour | [1]; 60% preservative, 72 hour | [1]; 70% preservative, 72 hour | [1]; 80% preservative, 72 hour | [1]; 90% preservative, 48 hour | [1]; 90% preservative, 72 hour | [1]; 100% preservative, 48 hour | [1]; 100% preservative, 72 hour | Pseudomonas putida (K); 10% preservative, 8 hour | Pseudomonas putida (K); 10% preservative, 24 hour | Pseudomonas putida (K); 10% preservative, 48 hour | Pseudomonas putida (K); 10% preservative, 72 hour | Pseudomonas putida (K); 20% preservative, 8 hour | Pseudomonas putida (K); 20% preservative, 24 hour | Pseudomonas putida (K); 20% preservative, 48 hour | Pseudomonas putida (K); 20% preservative, 72 hour | Pseudomonas putida (K); 30% preservative, 8 hour | Pseudomonas putida (K); 30% preservative, 24 hour | Pseudomonas putida (K); 30% preservative, 48 hour | Pseudomonas putida (K); 30% preservative, 72 hour | Pseudomonas putida (K); 40% preservative, 8 hour | Pseudomonas putida (K); 40% preservative, 24 hour | Pseudomonas putida (K); 40% preservative, 48 hour | Pseudomonas putida (K); 40% preservative, 72 hour | Pseudomonas putida (K); 50% preservative, 8 hour | Pseudomonas putida (K); 50% preservative, 24 hour | Pseudomonas putida (K); 50% preservative, 48 hour | Pseudomonas putida (K); 50% preservative, 72 hour | Pseudomonas putida (K); 60% preservative, 8 hour | Pseudomonas putida (K); 60% preservative, 24 hour | Pseudomonas putida (K); 60% preservative, 48 hour | Pseudomonas putida (K); 60% preservative, 72 hour | Pseudomonas putida (K); 70% preservative, 8 hour | Pseudomonas putida (K); 70% preservative, 24 hour | Pseudomonas putida (K); 70% preservative, 48 hour | Pseudomonas putida (K); 70% preservative, 72 hour | Pseudomonas putida (K); 80% preservative, 8 hour | Pseudomonas putida (K); 80% preservative, 24 hour | Pseudomonas putida (K); 80% preservative, 48 hour | Pseudomonas putida (K); 80% preservative, 72 hour | Pseudomonas putida (K); 90% preservative, 8 hour | Pseudomonas putida (K); 90% preservative, 24 hour | Pseudomonas putida (K); 90% preservative, 48 hour | Pseudomonas putida (K); 90% preservative, 72 hour | Pseudomonas putida (K); 100% preservative, 8 hour | Pseudomonas putida (K); 100% preservative, 24 hour | Pseudomonas putida (K); 100% preservative, 48 hour | Pseudomonas putida (K); 100% preservative, 72 hour | [2]; 10% preservative, 24 hour | [2]; 10% preservative, 48 hour | [2]; 10% preservative, 72 hour | [2]; 20% preservative, 24 hour | [2]; 20% preservative, 48 hour | [2]; 20% preservative, 72 hour | [2]; 30% preservative, 8 hour | [2]; 30% preservative, 24 hour | [2]; 30% preservative, 48 hour | [2]; 30% preservative, 72 hour | [2]; 40% preservative, 8 hour | [2]; 40% preservative, 24 hour | [2]; 40% preservative, 48 hour | [2]; 40% preservative, 72 hour | [2]; 50% preservative, 8 hour | [2]; 50% preservative, 24 hour | [2]; 50% preservative, 48 hour | [2]; 50% preservative, 72 hour | [2]; 60% preservative, 8 hour | [2]; 60% preservative, 24 hour | [2]; 60% preservative, 48 hour | [2]; 60% preservative, 72 hour | [2]; 70% preservative, 8 hour | [2]; 70% preservative, 24 hour | [2]; 70% preservative, 48 hour | [2]; 70% preservative, 72 hour | [2]; 80% preservative, 8 hour | [2]; 80% preservative, 24 hour | [2]; 80% preservative, 48 hour | [2]; 80% preservative, 72 hour | [2]; 90% preservative, 8 hour | [2]; 90% preservative, 24 hour | [2]; 90% preservative, 48 hour | [2]; 90% preservative, 72 hour | [2]; 100% preservative, 8 hour | [2]; 100% preservative, 24 hour | [2]; 100% preservative, 48 hour | [2]; 100% preservative, 72 hour
1: [1]; 40% preservative, 72 hour
4: [1]; 20% preservative, 72 hour
+/−: [1]; 10% preservative, 48 hour | [1]; 20% preservative, 48 hour | [1]; 30% preservative, 24 hour | [1]; 30% preservative, 48 hour | [1]; 40% preservative, 24 hour | [1]; 40% preservative, 48 hour | [1]; 50% preservative, 24 hour | [1]; 50% preservative, 48 hour | [1]; 60% preservative, 8 hour | [1]; 60% preservative, 24 hour | [1]; 60% preservative, 48 hour | [1]; 70% preservative, 8 hour | [1]; 70% preservative, 24 hour | [1]; 70% preservative, 48 hour | [1]; 80% preservative, 8 hour | [1]; 80% preservative, 24 hour | [1]; 80% preservative, 48 hour | [1]; 90% preservative, 8 hour | [1]; 90% preservative, 24 hour | [1]; 100% preservative, 8 hour | [1]; 100% preservative, 24 hour | [2]; 10% preservative, 8 hour | [2]; 20% preservative, 8 hour
+: [1]; 10% preservative, 8 hour | [1]; 10% preservative, 24 hour | [1]; 20% preservative, 8 hour | [1]; 20% preservative, 24 hour | [1]; 30% preservative, 8 hour | [1]; 40% preservative, 8 hour | [1]; 50% preservative, 8 hour
